This note sets out measurements from publication PMC10028969 (bioRxiv, 2023).

The subject of series [1] is T. b. brucei Lister 427. As to the kind of experiment: Mouse model of T. brucei infection. In kind it is in vivo, Trypanosoma brucei brucei.
In series [2] the test system is T. b. brucei Lister 427. As to the kind of experiment: Time-kill assays. The class given is cell-based. The following applies: Trypanosoma brucei, 12 h, read-out: parasite viability.
The nature of series [3]: HEK-293 counter-screen assay. Conditions: human, HEK-293 cells. The class given is cell-based. (In general: A counterscreen serves to expose hits that act by an unwanted route or on another target.)
The subject of series [4] is T. b. brucei Lister 427. As to the kind of experiment: SYBR Green viability assay with T. brucei. The following applies: Trypanosoma brucei, 72 h, read-out: T. b. brucei Lister 427 EC50 (nM) ± SD. The class given is cell-based.

Take `N=C(N)c1ccc(OCCCCCOc2ccc(C(=N)N)cc2)cc1` [Pentamidine, pentamidine]: in series [1] (4 mg/kg i.p. on day 2, end of the study, without parasite recrudescence), the mouse survival is given as not below 15 day post-infection. Moreover, in series [1] (single i.p. dose 4 mg/kg on day 2 post-infection, BALB/c female mice), the “parasitemia within 24 h of administration” value is reported as < 2.5 × 10^5 parasites/ml. In series [2], the viability at 4 µM was 52.8%. Also, in series [3], the half-maximal cytotoxic concentration (CC50) at 48 h was more than 4000 nM. In addition, the half-maximal effective concentration (EC50) in series [4] amounted to 69.6 ± 35.5 nM.

As usually defined, the viability is a read-out of living cells in per cent, often relative to untreated cells. As a reminder, the CC50 is the concentration giving 50% cytotoxicity. Low readings indicate greater toxicity to the cells, high ones lower toxicity to the cells. Usually EC50 stands for the midpoint of the concentration-response curve.
